Here are results for 33 compounds from patent US11827628B2, “Compositions and methods for inhibition of the JAK pathway” (Rigel Pharmaceuticals, Inc., priority 2005, dated 2023).

Structures can show the parent of a compound that is named as a salt.

For the first assay, the system named is IL-4 stimulated expression of CD23 in human Ramos B cells (JAK-1 and JAK-3). As to the kind of experiment: Assay for Ramos B-Cell Line Stimulated with IL-4 (CD23 upregulation, FACS). It is filed as cell-based. The settings on record: Homo sapiens, Ramos, Ramos B cells stimulated with IL-4, CD23 expression by FACS; read-out: IC50, Example 41. An outline of the steps: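 Read-out is surface CD23 by FACS after anti-CD23-PE staining, giving IC50. Before this, cells were stimulated 20-24 h with 50 units/mL (final) human IL-4, following 1 h compound or vehicle pre-treatment at 37 °C; log-phase Ramos B cells, 5×10^4 per well in 5% serum RPMI.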
Background: In flow cytometry, cells or beads pass a laser one at a time.
As for `CCNC(=O)NCc1ccc(Nc2nc(Nc3ccc(S(N)(=O)=O)cc3)ncc2F)cc1` [III-119, N2-(4-Aminosulfonylphenyl)-N4-(4-ethylaminocarbonylaminomethylphenyl]-5-fluoro-2,4-pyrimidinediamine], the IC50 stood at 1.3 µM. For the compound `NS(=O)(=O)c1ccc(Nc2ncc(F)c(Nc3cccc(-c4cnco4)c3)n2)cc1` [IV-3, N2-(4-Aminosulfonylphenyl)-5-fluoro-N4-[3-(1,3-oxazol-5-yl)phenyl]-2,4-pyrimidinediamine], the IC50 worked out at 0.0932 µM. Regarding `C#CCn1ccc2ccc(Nc3nc(Nc4ccc(C)c(S(N)(=O)=O)c4)ncc3F)cc21` [IX-3, N2-(3-Aminosulfonyl-4-methylphenyl)-5-fluoro-N4-[1-(propyn-3-yl)indol-6-yl]-2,4-pyrimidinediamine], the IC50 came to 0.115 µM.

Turning to `C#CCn1ccc2ccc(Nc3nc(Nc4cccc(S(N)(=O)=O)c4)ncc3F)cc21` [IX-4, N2-(3-Aminosulfonylphenyl)-5-fluoro-N4-[1-(propyn-3-yl)indol-6-yl]-2,4-pyrimidinediamine], the half-maximal inhibitory concentration (IC50) stood at 0.12 µM. `Cc1ccc(Nc2ncc(F)c(Nc3ccc4c(C(N)=O)c[nH]c4c3)n2)cc1S(N)(=O)=O` [IX-9, N4-[3-(Aminocarbonyl)-1H-indol-6-yl]-N2-(3-aminosulfonyl-4-methylphenyl)-5-fluoro-2,4-pyrimidinediamine]: the half-inhibitory concentration (IC50) is 8.88 µM. On the same count and under the same terms, the same measure for `NC(=O)c1c[nH]c2cc(Nc3nc(Nc4ccc(Cl)c(S(N)(=O)=O)c4)ncc3F)ccc12` [IX-10, N4-[3-(Aminocarbonyl)-1H-indol-6-yl]-N2-(3-aminosulfonyl-4-chlorophenyl)-5-fluoro-2,4-pyrimidinediamine]: 6.41 µM.

Staying with this assay, now noted: Homo sapiens, Ramos, Ramos B-cell line stimulated with IL-4; CD23 expression by FACS; read-out: IC50, Example 41.
For the compound `C=CC(=O)NCc1ccc(Nc2nc(Nc3ccc(S(N)(=O)=O)cc3)ncc2F)cc1` [III-44, N4-(4-Acrylamidomethylphenyl)-N2-(4-aminosulfonylphenyl)-5-fluoro-2,4-pyrimidinediamine], the IC50 turned out to be 1.43 µM.

Staying with this assay, now noted: Ramos B cells stimulated with IL-4, CD23 expression by FACS; read-out: IC50, Example 41.
`CNS(=O)(=O)c1cc(Nc2ncc(F)c(NCCc3ccc(-n4ccnc4)cc3)n2)ccc1C` [III-89, 5-Fluoro-N2-[3-(N-methylaminosulfony)-4-methylphenyl]-N4-[4-(1-imidazolyl)phenethyl]-2,4-pyrimidinediamine]: the half-maximal inhibitory concentration (IC50) was determined as 0.115 µM. Consider `COc1ccc(Nc2ncc(F)c(Nc3ccc(CN4CCOCC4)cc3)n2)cc1S(N)(=O)=O` [III-105, N2-(3-Aminosulfonyl-4-methyleneoxyphenyl)-5-fluoro-N4-(4-N-morpholinomethylenephenyl)-2,4-pyrimidinediamine], for which the IC50 turned out to be 1.28 µM. As to `COc1ccc(Nc2ncc(F)c(Nc3ccc(CN4CCS(=O)(=O)CC4)cc3)n2)cc1S(N)(=O)=O` [III-112, N2-(3-Aminosulfonyl-4-methyloxyphenyl)-5-fluoro-N4-{4-[(1,1-dioxothiomorpholin-4-yl-)methyl]phenyl}-2,4-pyrimidinediamine], the IC50 came out at 2.48 µM.

As to `NC(=O)NCc1cccc(Nc2nc(Nc3cccc(S(N)(=O)=O)c3)ncc2F)c1` [III-114, N4-(3-aminocarbonylaminomethyl)phenyl-N2-(3-aminosulfonyl)phenyl-5-fluoro-2,4-pyrimidinediamine], the IC50 came to 2.68 µM. On the same count and under the same terms, the same measure for `Cc1ccc(Nc2ncc(F)c(Nc3cccc(CNC(N)=O)c3)n2)cc1S(N)(=O)=O` [III-115, N4-(3-aminocarbonylaminomethyl)phenyl-N2-(3-aminosulfonyl-4-methyl)phenyl-5-fluoro-2,4-pyrimidinediamine]: 1.65 µM. Regarding `CCNC(=O)NCc1cccc(Nc2nc(Nc3cccc(S(N)(=O)=O)c3)ncc2F)c1` [III-117, N2-(3-aminosulfonyl)phenyl-N4-(3-ethylaminocarbonylaminomethyl)phenyl-5-fluoro-2,4-pyrimidinediamine], the IC50 came to 0.397 µM. For the compound `CCNC(=O)NCCc1ccc(Nc2nc(Nc3ccc(S(N)(=O)=O)cc3)ncc2F)cc1` [III-122, N2-(4-aminosulfonyl)phenyl-N4-[4-(2-ethylaminocarbonylamino)ethyl]phenyl-5-fluoro-2,4-pyrimidinediamine], the concentration for half-maximal inhibition (IC50) is 0.539 µM. With `CCNC(=O)NCCc1ccc(Nc2nc(Nc3ccc(C)c(S(N)(=O)=O)c3)ncc2F)cc1` [III-124, N2-(3-aminosulfonyl-4-methyl)phenyl-N4-[4-(2-ethylaminocarbonylamino)ethyl]phenyl-5-fluoro-2,4-pyrimidinediamine], the IC50 is 0.295 µM. Consider `CCCN(Cc1ccc(Nc2nc(Nc3ccc(S(N)(=O)=O)cc3)ncc2F)cc1)C(N)=O` [III-125, N2-(4-aminosulfonyl)phenyl-N4-[4-(N-carbamoyl-N-propyl)aminomethyl]phenyl-5-fluoro-2,4-pyrimidinediamine], for which the half-maximal inhibitory concentration (IC50) worked out at 0.836 µM.

In the case of `CNS(=O)(=O)c1cccc(Nc2nc(Nc3cccc(S(N)(=O)=O)c3)ncc2F)c1` [IV-11, N2-(3-Aminosulfonylhenyl)-5-fluoro-N4-[3-(N-methylaminosulfonyl)phenyl]-2,4-pyrimidinediamine], the IC50 turned out to be 0.367 µM.

For `CC(=O)N1CCN(C(=O)c2ccc(Nc3nc(Nc4cccc(S(N)(=O)=O)c4)ncc3F)cc2)CC1` [IX-23, N4-[4-(1-Acetyl-4-piperizinyl)carbonylphenyl]-N2-(3-Aminosulfonylphenyl)-5-fluoro-2,4-pyrimidinediamine], the IC50 came out at 9.58 µM. Still for that read-out and setting: the same measure for `CNS(=O)(=O)c1cc(Nc2ncc(F)c(Nc3ccc(C(=O)N4CCN(C(C)=O)CC4)cc3)n2)ccc1C` [IX-25, N4-[4-(1-Acetyl-4-piperizinyl)carbonylphenyl]-5-fluoro-N2-[3-(N-methylaminosulfony)-4-methylphenyl]-2,4-pyrimidinediamine]: 6.31 µM. The same measure, in the same setting: to `CS(=O)(=O)N1CCN(C(=O)c2ccc(Nc3nc(Nc4cccc(S(N)(=O)=O)c4)ncc3F)cc2)CC1` [IX-29, N2-(3-Aminosulfonylphenyl)-5-fluoro-N4-[4-(1-methanesulfonyl-4-piperizinyl)carbonylphenyl]-2,4-pyrimidinediamine] belongs 3.46 µM; to `CNS(=O)(=O)c1cc(Nc2ncc(F)c(Nc3ccc(C(=O)N4CCN(S(C)(=O)=O)CC4)cc3)n2)ccc1C` [IX-31, 5-Fluoro-N2-[3-(N-methylaminosulfony)-4-methylphenyl]-5-fluoro-N4-[4-(1-methanesulfonyl-4-piperizinyl)carbonylphenyl]-2,4-pyrimidinediamine], 1.4 µM. For the compound `CNS(=O)(=O)c1cc(Nc2ncc(F)c(Nc3ccc(C(=O)N4CCSCC4)cc3)n2)ccc1C` [IX-33, 5-Fluoro-N2-[3-(N-methylaminosulfony)-4-methylphenyl]-5-fluoro-N4-[4-(4-thiomorpholino)carbonylphenyl]-2,4-pyrimidinediamine], the IC50 was 0.521 µM.

Still in this assay, the particulars now being: Ramos B-cell line stimulated with IL-4; CD23 expression by FACS; read-out: IC50, Example 41.
Turning to `CNS(=O)(=O)c1cc(Nc2ncc(F)c(Nc3ccc(Oc4cccnc4)cc3)n2)ccc1C` [II-13, 5-Fluoro-N2-[3-N-(methylaminosulfonyl)-4-methylphenyl]-N4-[4-(3-pyridyloxy)phenyl]-2,4-pyrimidinediamine], the IC50 is 0.323 µM. Regarding `N#CCc1ccc(Nc2nc(Nc3ccc(S(N)(=O)=O)cc3)ncc2F)cc1` [III-3, N2-(4-Aminosulfonyl)phenyl-N4-(4-cyanomethyl)phenyl-5-fluoro-2,4-pyrimidinediamine], the concentration for half-maximal inhibition (IC50) came to 0.536 µM. Turning to `CN1CCN(S(=O)(=O)c2cccc(Nc3ncc(F)c(Nc4ccc(CC#N)cc4)n3)c2)CC1` [III-5, N4-(4-Cyanomethyl)phenyl-5-fluoro-N2-[3-(4-methylpiperazin-1-yl)sulfonyl]phenyl-2,4-pyrimidinediamine], the IC50 was found to be 4.98 µM. For the compound `Cc1cc(CCC#N)ccc1Nc1nc(Nc2ccc(C)c(S(N)(=O)=O)c2)ncc1F` [III-23, N2-(3-Aminosulfonyl-4-methylphenyl)-N4-(4-cyanoethylene-2-methylphenyl)-5-fluoro-2,4-pyrimidinediamine], the IC50 is 0.397 µM. The same measure, in the same setting: to `CCC(=O)NCc1ccc(Nc2nc(Nc3ccc(S(N)(=O)=O)cc3)ncc2F)cc1` [III-35, N2-(4-aminosulfonyl)phenyl-N4-(4-ethylcarbonylaminomethyl)phenyl-5-fluoro-2,4-pyrimidinediamine] belongs 1.08 µM; to `NS(=O)(=O)c1ccc(Nc2ncc(F)c(Nc3ccc(CNC(=O)C4CC4)cc3)n2)cc1` [III-41, N2-(4-aminosulfonyl)phenyl-N4-(4-cyclopropylcarbonylaminomethyl)phenyl-5-fluoro-2,4-pyrimidinediamine], 1.01 µM; to `NC(=O)CCc1ccc(Nc2nc(Nc3ccc(S(N)(=O)=O)cc3)ncc2F)cc1` [III-49, N4-[4-(2-Aminocarboxylethylene)phenyl]-N2-(4-aminosulfonylphenyl)-5-fluoro-2,4-pyrimidinediamine], 0.178 µM. On the same count and under the same terms, the same measure for `CCn1nccc1NC(=O)Cc1ccc(Nc2nc(Nc3cccc(S(N)(=O)=O)c3)ncc2F)cc1` [III-51, N2-(3-Aminosulfonylphenyl)-N4-[(1-ethylpyrazolyl-5-aminocarbonylmethylene)phenyl]-5-fluoro-2,4-pyrimidinediamine]: 1.01 µM; for `CCC(=O)NS(=O)(=O)c1cccc(Nc2ncc(F)c(Nc3ccc(Cc4ccncc4)cc3)n2)c1` [III-68]: 3.23 µM. For `CCN(CC)CCNS(=O)(=O)c1ccc(Nc2ncc(F)c(Nc3ccc(Cc4ccncc4)cc3)n2)cc1` [III-72, N2-[4-(2-N,N-Diethylaminoethyl)aminosulfonylphenyl)-5-fluoro-N4-[4-(4-pyridinylmethyl)phenyl]-2,4-pyrimidinediamine], the IC50 worked out at 1.95 µM.

The same assay, now with this note: Ramos B-cell line stimulated with IL-4; CD23 expression by FACS; sodium salt; read-out: IC50, Example 41.
On to `CCC(=O)NS(=O)(=O)c1cccc(Nc2ncc(F)c(Nc3ccc(Cc4ccncc4)cc3)n2)c1` [III-69, 5-Fluoro-N4-[4-(4-pyridinylmethyl)phenyl]-N2-[(3-N-propanamido)sulfonylphenyl)]-2,4-pyrimidinediamine sodium salt], for which the IC50 worked out at 3.32 µM.

In general, IC50 refers to the concentration at which inhibition is half-maximal.
